Values quoted from earlier work in patent publication US20200230099A1, “Stable Pharmaceutical Composition Comprising Zanamivir” (Dae Hwa Pharma. Co., Ltd., priority 2017, published 2020).
Where two headings read alike, the source gives them in different places.

Details: in vivo

- bioavailability: about 2%
- bioavailability (inhaled or intranasal): 4-17%
Structure (SMILES): CC(=O)N[C@H]1[C@H]([C@H](O)[C@H](O)CO)OC(C(=O)O)=C[C@@H]1N=C(N)N [zanamivir, 5-(acetylamino)-4-[(aminoiminomethyl)amino]-2,6-anhydro-3,4,5-trideoxy-D-glycero-D-galacto-non-2-enonic acid]
